Measurements from paper PMC11352409, “Subtype-Specific Ligand Binding and Activation Gating in Homomeric and Heteromeric P2X Receptors” (Biomolecules, 2024).

Target: T1, human P2X3 receptors (Homo sapiens, UniProt P56373)
T1 construct: expressed in transfected cells
T1 sequence (P56373 1-397): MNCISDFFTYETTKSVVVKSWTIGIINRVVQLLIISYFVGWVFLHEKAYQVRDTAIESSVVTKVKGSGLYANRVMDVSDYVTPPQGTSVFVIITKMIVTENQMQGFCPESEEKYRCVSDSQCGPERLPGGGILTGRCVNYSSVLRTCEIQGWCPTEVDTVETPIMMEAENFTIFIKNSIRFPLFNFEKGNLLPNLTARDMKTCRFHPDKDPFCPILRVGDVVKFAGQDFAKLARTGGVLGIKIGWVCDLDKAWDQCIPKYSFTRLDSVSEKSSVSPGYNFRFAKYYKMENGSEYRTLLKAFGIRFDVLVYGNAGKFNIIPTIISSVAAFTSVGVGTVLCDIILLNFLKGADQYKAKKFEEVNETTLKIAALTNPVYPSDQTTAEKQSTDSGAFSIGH
Experiment: Whole-cell patch-clamp concentration-activation, HEK293 cells stably expressing hP2X3
Format: cell-based
Conditions: for Hill: hP2X3, Hill coefficient of concentration-activation fit; for Effect (Fold in ATP Potency): hP2X3, relative to ATP; for Effect (Fold in ATP Efficacy): hP2X3, relative to current at 100 µM ATP; for EC50: hP2X3, whole-cell, -50 mV, divalent-cation-free bath with 10 mM EGTA, normalised to 100 µM ATP
Procedure: Human P2X receptors were expressed from HEK293 cell lines containing an inducible promoter system (Flp-In-T-REx 293, Invitrogen, Waltham, MA, USA). The used cell lines were: hP2X2 B (RRID: AC line CVCL_D6U1), hP2X3 (RRID: AC line CVCL_D6U3), and hP2X2/3 (RRID: AC line CVCL_D6U2). The cells were cultured in MEM supplemented with non-essential amino acids (Gibco, Waltham, MA, USA), 10% FCS, and antibiotics, according to the manufacturer’s instructions. For stable cell lines, Flp-In-T-REx 293 cells were transfected using the calcium phosphate method with a mixture of plasmids (0.3 µg pcDNA5/FRT/TO P2X gene and 1.5 µg pOG44) and selected for hygromycin resistance. The cells were seeded on glass coverslips for electrophysiological measurements and used 24–48 h after tetracycline induction ([…]).
Membrane currents were recorded with a standard patch-clamp technique in the whole-cell configuration. The patch pipettes were pulled from borosilicate glass (ID 1.0 mm, OD 2.0 mm; VITROCOM, Mountain Lakes, NJ, USA) using a micropipette puller (P-97, Sutter Instrument, Novato, CA, USA). The pipettes were filled with intracellular solution containing (mM) 142 NaCl, 5 BAPTA, 5 EGTA, and 10 HEPES at pH 7.4. The pipette resistance was from 2.0 to 6.0 MΩ. The bath solution contained (mM) 142 NaCl, 10 EGTA, 10 HEPES, and 10 glucose at pH 7.4. To increase the speed of recovery from the hP2X3 receptors, we additionally used a bath solution containing (mM) 142 NaCl, 10 HEPES, 10 glucose, 2 CaCl2, and 1 MgCl2. The cells were lifted for recording from the chamber bottom by the patch pipette and positioned in front of the outlet of the application pipette.
Solutions switches were carried out with the application pipette that had three barrels (inner diameter ~600 µm, Warner Instruments) controlled by a step motor (SF-77B, Warner Instruments). The speed of the laminar solution flow out of the barrels was estimated to be 2–5 cm/s. One barrel contained a control solution and another was connected to a solution selector (Vici Valco Instruments), which allowed us to apply different test solutions by exchanging the solution during the interval (60 sec for P2X2 and P2X2/3 receptors, 180 s for P2X3 receptors) of applying the control solution. Cells expressing hP2X3 were washed with 3 Units/mL apyrase for 30 min to remove ATP. To ensure the comparability of the data points between each application, we rinsed hP2X3 with the following solution for 3 min after each ATP application (mM): 142 NaCl, 10 HEPES, 10 glucose, 2 CaCl2, and 1 MgCl2 at pH 7.4. After sufficient recovery, we switched to the bath solution for 10 s and then to the solution of interest. The speed of the switch around a whole cell was estimated to be below 10 ms by switching between different salt solutions.
The saturation of activation was determined with ATP at 100 µM. The currents were recorded with a HEKA EPC 10 amplifier in combination with the patchmaster software. The sampling rate was 10 kHz and the recordings were on-line filtered at 2.9 kHz using a four-pole Bessel filter. The currents were recorded at a constant holding potential of −50 mV and the series resistance was compensated with the patchmaster software up to 80%.
The concentration–activation relationships from whole-cell measurements in the HEK293 cells were obtained from the maximum currents during ATP application. These current amplitudes were normalised with respect to the current at saturating ATP (100 µM) and the resulting data points were fitted I/ImaxATP = Amp/(1 + (EC50/[X])^h) (1) with the Origin 2019® software using a non-linear curve fitting routine. I is the actual current amplitude and ImaxATP is the maximum current amplitude at saturating ATP. The amplitude Amp is the efficacy of the respective ligands. EC50 is the ligand concentration generating the half-maximum current and h is the respective Hill coefficient. [X] is the actual concentration of ATP to be tested. […]

Hill	Effect (Fold in ATP Potency)	Effect (Fold in ATP Efficacy)	EC50	SMILES
1.6 ± 0.1	0.9 fold	0.8 fold	1.3 ± 0.1 µM	COCC[N+]1=C(C=CC=C2N(CCCCCC(=O)NCCCCCCSc3nc(N)c4ncn(C5OC(COP(=O)(O)OP(=O)(O)OP(=O)(O)O)C(O)C5O)c4n3)c3ccc(S(=O)(=O)O)cc3C2(C)C)C(C)(C)c2cc(S(=O)(=O)[O-])ccc21 (centres unmarked) [fATP, 2-[DY-547P1]-AHT-ATP]
3.5 ± 0.0	0.1 fold	1.0 fold	8.1 µM	COCC[N+]1=C(C=CC=C2N(CCCCCC(=O)NCCCCCCSc3nc(N)c4ncn(C5OC(COP(=O)(O)CP(=O)(O)OP(=O)(O)O)C(O)C5O)c4n3)c3ccc(S(=O)(=O)O)cc3C2(C)C)C(C)(C)c2cc(S(=O)(=O)[O-])ccc21 (stereo not drawn) [α,βMe-fATP, 2-[DY-547P1]-AHT-α,βMe-ATP]
